# Source: US4393225A, “AI-77 Compounds and pharmaceutically acceptable salts thereof” (Asahi Kasei Kogyo Kabushiki Kaisha, priority 1979, dated 1983)
# Test system: ulcer
# Assay: Anti-ulcer test (restraint and water immersion ulcer in rats, i.p.)
# Assay type: in vivo, Male Wistar rats
# Conditions: Rattus norvegicus, ip; 50 mg/kg i.p.; read-out: % Inhibition of Ulcer
# Experimental: The anti-ulcer and anti-edema activity of the compounds was evaluated in efficacy tests described below.
# Male Wistar rats weighing about 150 g on average were not fed for 24 hours before the test. Then a solution or suspension of a predetermined concentration of the test compound in physiological saline was administered to them intraperitoneally. One hour after the administration,each rat was restrained in a net cage and submerged in a water both (21° C.) from the tail to xiphistrenun for 6 hours. Test animals were then killed (by dislocation of the cervical vertebrae), the stomach was removed and incised along the curvatura ventriculi major, and the inside wall of the stomach was pathologically examined under microscopic observation. Rats in which the occurrence of an ulceration was substantially not observed were rated O, while others were rated 0.5, 1, 2 or 3, depending on the severity of the ulcer development. The percent inhibition of ulcer was calculated by the following formula: [formula]
row,SMILES,inhibition in vivo at 50 mg/kg [%]
1,CC(=O)Oc1cccc2c1C(=O)OC(C(CC(C)C)NC(=O)C(OC(C)=O)C1OC(=O)CC1NC(=O)C1CCCO1)C2 (stereo not shown) [IIIa-3-6],33
2,COC(C)CC(=O)NC1CC(=O)OC1C(OC(C)=O)C(=O)NC(CC(C)C)C1Cc2cccc(OC(C)=O)c2C(=O)O1 (stereo not shown) [IIIa-3-7],33
3,CC(=O)Oc1cccc2c1C(=O)OC(C(CC(C)C)NC(=O)C(OC(C)=O)C1OC(=O)CC1NC(=O)c1ccc(C)cc1)C2 (stereo not shown) [IIIa-3-8],33
4,CC(=O)Oc1cccc2c1C(=O)OC(C(CC(C)C)NC(=O)C(OC(C)=O)C1OC(=O)CC1NC(=O)c1ccc(OCCC(C)C)cc1)C2 (stereo not shown) [IIIa-3-9],22
5,CC(=O)Oc1cccc2c1C(=O)OC(C(CC(C)C)NC(=O)C(OC(=O)C(Cl)(Cl)Cl)C1OC(=O)CC1NC(=O)C(Cl)(Cl)Cl)C2 (stereo not shown) [IIIa-3-10],33
6,CC(=O)Oc1cccc2c1C(=O)OC(C(CC(C)C)NC(=O)C(O)C1OC(=O)CC1NC(=O)C(C)C)C2 (stereo not shown) [IIIa-4-2],44
7,CCCCCCCCCCCCCCCCCC(=O)NC1CC(=O)OC1C(O)C(=O)NC(CC(C)C)C1Cc2cccc(OC(C)=O)c2C(=O)O1 (stereo not shown) [IIIa-4-3],33
8,CCCCCCCCC=CCCCCCCCC(=O)NC1CC(=O)OC1C(O)C(=O)NC(CC(C)C)C1Cc2cccc(OC(C)=O)c2C(=O)O1 (stereo not shown) [IIIa-4-4],33
9,CC(=O)Oc1cccc2c1C(=O)OC(C(CC(C)C)NC(=O)C(O)C1OC(=O)CC1NC(=O)C1CCCO1)C2 (stereo not shown) [IIIa-4-5],33
10,COC(C)CC(=O)NC1CC(=O)OC1C(O)C(=O)NC(CC(C)C)C1Cc2cccc(OC(C)=O)c2C(=O)O1 (stereo not shown) [IIIa-4-6],44
11,CC(=O)Oc1cccc2c1C(=O)OC(C(CC(C)C)NC(=O)C(O)C1OC(=O)CC1NC(=O)c1ccc(C)cc1)C2 (stereo not shown) [IIIa-4-7],33
12,CC(=O)Oc1cccc2c1C(=O)OC(C(CC(C)C)NC(=O)C(O)C1OC(=O)CC1NC(=O)c1ccc(OCCC(C)C)cc1)C2 (stereo not shown) [IIIa-4-8],33
13,CC(C)CC(NC(=O)C(O)C1OC(=O)CC1NC(=O)C(Cl)(Cl)Cl)C1Cc2cccc(OC(=O)C(Cl)(Cl)Cl)c2C(=O)O1 (stereo not shown) [IIIa-4-9],33
14,CCOc1cccc2c1C(=O)OC(C(CC(C)C)NC(=O)C(O)C1OC(=O)CC1NC(C)=O)C2 (stereo not shown) [IIIa-5-1],44
15,CCOc1cccc2c1C(=O)OC(C(CC(C)C)NC(=O)C(O)C1OC(=O)CC1NC(=O)CC(C)C)C2 (stereo not shown) [IIIa-5-2],44
16,CCCCOc1cccc2c1C(=O)OC(C(CC(C)C)NC(=O)C(O)C1OC(=O)CC1NC(C)=O)C2 (stereo not shown) [IIIa-5-3],44
17,CC(C)COc1cccc2c1C(=O)OC(C(CC(C)C)NC(=O)C(O)C1OC(=O)CC1NC(=O)C(C)C)C2 (stereo not shown) [IIIa-5-4],33
18,COc1cccc2c1C(=O)OC(C(CC(C)C)NC(=O)C(O)C1OC(=O)CC1NC(C)=O)C2 (stereo not shown) [IIIa-5-5],44
19,CCCCCCCCCCCCCCCCCC(=O)NC1CC(=O)OC1C(O)C(=O)NC(CC(C)C)C1Cc2cccc(OCCCCCCC)c2C(=O)O1 (stereo not shown) [IIIa-5-6],33
20,COc1cccc2c1C(=O)OC(C(CC(C)C)NC(=O)C(O)C1OC(=O)CC1NC(=O)C(Cl)(Cl)Cl)C2 (stereo not shown) [IIIa-5-7],44
21,CCCCCCCCC=CCCCCCCCCOc1cccc2c1C(=O)OC(C(CC(C)C)NC(=O)C(O)C1OC(=O)CC1NC(C)=O)C2 (stereo not shown) [IIIa-5-8],33
22,CCCCCCCCCCCCOc1cccc2c1C(=O)OC(C(CC(C)C)NC(=O)C(O)C1OC(=O)CC1NC(C)=O)C2 (stereo not shown) [IIIa-5-9],33
23,CC(=O)NC1CC(=O)OC1C(O)C(=O)NC(CC(C)C)C1Cc2cccc(OCC(C)C)c2C(=O)O1 (stereo not shown) [IIIa-5-10],44
24,CCCCCCCCOc1cccc2c1C(=O)OC(C(CC(C)C)NC(=O)C(O)C1OC(=O)CC1NC(C)=O)C2 (stereo not shown) [IIIa-5-11],44
25,CCCCCCCCCCCCCCCCCCOc1cccc2c1C(=O)OC(C(CC(C)C)NC(=O)C(O)C1OC(=O)CC1NC(=O)CCCCCC)C2 (stereo not shown) [IIIa-5-12],33
